Our source for the Kd values is paper PMC9960696, “Functional Expression of Recombinant Candida auris Proteins in Saccharomyces cerevisiae Enables Azole Susceptibility Evaluation and Drug Discovery” (Journal of Fungi, 2023).

In general, Kd refers to the free concentration of one partner at which half of the binding sites on the other are occupied at equilibrium, for simple one-to-one binding. Low readings indicate higher affinity, high ones lower affinity.

In the assay the target is T1, CauErg11-6×His (Candidozyma auris, UniProt A0A2H1A309).
T1 construct: gene B9J08_03698; full-length, C-terminal GGR linker and 6xHis kept; expressed in S. cerevisiae ADΔΔ (Y2767, native ERG11 deleted); DM-solubilised, Ni-NTA partially purified; mutant Y132F in strain Y2768
T1 sequence (A0A2H1A309 entry or part of it): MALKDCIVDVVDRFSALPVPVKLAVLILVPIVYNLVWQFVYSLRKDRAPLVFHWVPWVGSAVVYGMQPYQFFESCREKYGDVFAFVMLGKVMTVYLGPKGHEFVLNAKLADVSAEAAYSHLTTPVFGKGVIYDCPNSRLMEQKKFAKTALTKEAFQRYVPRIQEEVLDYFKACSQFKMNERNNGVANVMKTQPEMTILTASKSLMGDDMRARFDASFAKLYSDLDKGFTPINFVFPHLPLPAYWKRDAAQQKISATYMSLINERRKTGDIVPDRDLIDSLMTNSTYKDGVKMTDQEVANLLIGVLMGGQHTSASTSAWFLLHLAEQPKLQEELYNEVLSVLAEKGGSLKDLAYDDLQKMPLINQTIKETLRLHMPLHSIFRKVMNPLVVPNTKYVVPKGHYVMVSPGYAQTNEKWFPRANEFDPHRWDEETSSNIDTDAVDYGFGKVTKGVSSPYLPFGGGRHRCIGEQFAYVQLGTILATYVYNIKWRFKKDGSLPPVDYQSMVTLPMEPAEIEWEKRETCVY
Put plainly: type II difference spectra titration. The assay is classed as binding. From the text:
type II difference spectra titration on CauErg11-6×His

In turn, `CC[C@@H]([C@H](C)O)n1ncn(-c2ccc(N3CCN(c4ccc(OC[C@@H]5CO[C@@](Cn6cncn6)(c6ccc(F)cc6F)C5)cc4)CC3)cc2)c1=O` [POS, Posaconazole] came in with a Kd of 340 nM.
`C[C@@H](c1ncncc1F)[C@](O)(Cn1cncn1)c1ccc(F)cc1F` [VRC, Voriconazole] yielded an equilibrium dissociation constant (Kd) of 740 nM.
Next, `C[C@@H](c1nc(-c2ccc(C#N)cc2)cs1)[C@](O)(Cn1cncn1)c1cc(F)ccc1F` [ISA, Isavuconazole]: 200 nM.
